Experimental data reported in patent US20130045475A1, “2-Nitrobenzyl-Modified Ribonucleotides” (ALERE SAN DIEGO, INC., priority 2004, published 2013).

Legend:
T7 RNA polymerase [1] = molecular target: T1, T7 RNA polymerase (Escherichia phage T7, UniProt P00573); assay: Primer extension reactions with RNA/DNA scaffold and T7 RNA polymerase; type: biochemical; set-up: purchased Fermentas; details: for extension of the RNA primer of the scaffold: sole nucleotide offered, template encodes rATP then rGTP, FIG. 2B
Experimental: The nucleic acid scaffolds were formed by incubating 1 nmol RNA-1 (5′-biotin-AACUGCGGCGAU-3′ (SEQ ID NO:1)) and 1 nmol DNA-1 (5′-[…]-3′ (SEQ ID NO:2)) in 100 μl transcription buffer (200 mM Tris-HCl (pH 7.9 at 25° C.), 30 mM MgCl2, 50 mM DTT, 50 mM NaCl, 10 mM spermidine) for 10 minutes at 70° C. Annealing occurred by slowly lowering the temperature to 25° C. The concentration of hybrid was assumed to be 10 μM.
For the primer extension reactions 2 pmoles of scaffold were mixed with 10 units of T7 RNA polymerase (Fermentas) in 9 μl transcription buffer to allow the transcription complex to form. Reactions were started by the addition of 1 μl of 1 mM nucleotide solution and incubated for 20 minutes at 37° C. Reactions were stopped by addition of 2 μl 500 mM EDTA and cooled on ice. UV irradiation was done for 10 minutes on a UV lamp.
Samples were precipitated, dissolved in formamide loading buffer and resolved on a denaturing 16% polyacrylamide gel (8M urea). Gels were electroblotted onto nylon-membrane (Osmonics, USA) in blotting buffer (0.5×TBE). Blots were incubated in blocking buffer (1×TBSTw/1% blocking reagent (Roche)) for 1 hour at room temperature to avoid non-specific noise, incubated with 0.5 μg/ml streptavidin-HRP (Sigma) in blocking buffer for 1 hour and washed extensively in Tris buffered saline containing 0.1% Tween-20. Detection was performed using a chemiluminescent substrate according to the instructions of the manufacturer (Pierce).

T7 RNA polymerase [2] = molecular target: T1, T7 RNA polymerase
Experimental: The reaction was started by the addition of 20 μl of 10 mM 2′-(2-Nitrobenzyl)-ATP and incubated for 2 hours at 37° C. Subsequently the reaction was split into 4 samples and subjected to deprotection: two samples were exposed to UV irradiation as described above, two untreated samples were incubated for the same period of time at ambient temperature. Deprotection was followed by addition of 1 volume of either extension mix containing 250 μM rNTPs in transcription buffer, or addition of transcription buffer only. Samples were then incubated for another 1 hour at 37° C.
Processing, separation and detection of products was done as described above.

T7 RNA polymerase [3] = molecular target: T1, T7 RNA polymerase; details: elongation mode complexes on duplex DNA substrates

T1 sequence (P00573 whole entry): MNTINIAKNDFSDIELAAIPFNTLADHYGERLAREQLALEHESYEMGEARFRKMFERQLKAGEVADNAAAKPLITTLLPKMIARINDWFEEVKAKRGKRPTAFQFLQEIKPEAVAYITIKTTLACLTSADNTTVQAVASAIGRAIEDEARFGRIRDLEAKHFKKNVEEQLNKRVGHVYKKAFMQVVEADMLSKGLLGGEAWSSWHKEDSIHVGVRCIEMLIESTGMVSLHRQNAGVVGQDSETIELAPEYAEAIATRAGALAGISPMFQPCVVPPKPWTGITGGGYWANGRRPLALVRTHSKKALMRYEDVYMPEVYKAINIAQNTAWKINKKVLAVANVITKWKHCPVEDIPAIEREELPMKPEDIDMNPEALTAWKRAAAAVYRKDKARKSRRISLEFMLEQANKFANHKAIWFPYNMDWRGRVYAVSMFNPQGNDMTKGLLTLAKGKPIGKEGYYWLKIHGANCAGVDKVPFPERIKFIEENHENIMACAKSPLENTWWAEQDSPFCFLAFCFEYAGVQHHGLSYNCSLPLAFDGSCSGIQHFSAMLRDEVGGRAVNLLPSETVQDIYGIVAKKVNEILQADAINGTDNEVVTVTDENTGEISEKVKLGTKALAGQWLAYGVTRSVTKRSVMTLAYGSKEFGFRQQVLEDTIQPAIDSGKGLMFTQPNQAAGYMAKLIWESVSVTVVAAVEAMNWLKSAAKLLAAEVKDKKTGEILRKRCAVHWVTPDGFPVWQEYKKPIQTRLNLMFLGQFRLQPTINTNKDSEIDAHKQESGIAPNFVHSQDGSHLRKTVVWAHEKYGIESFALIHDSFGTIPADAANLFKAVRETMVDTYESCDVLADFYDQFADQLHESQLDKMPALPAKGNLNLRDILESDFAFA

SMILES	extension of the RNA primer of the scaffold (T7 RNA polymerase [1])	reversal of termination on deprotection (T7 RNA polymerase [2]; UV irradiation 10 minutes, then 250 μM rNTPs extension mix, 1 hour at 37° C., FIG. 3 lane 4)	termination of transcription (T7 RNA polymerase [2]; scaffold + T7 RNAP + 2′-(2-Nitrobenzyl)-ATP 2 hours at 37° C., no UV, then rNTPs, FIG. 3 lane 3)	incorporation into a growing RNA chain (T7 RNA polymerase [3])	incorporation of the nucleotide analog into a growing RNA chain (T7 RNA polymerase [1]; RNA/DNA scaffold, 10 units T7 RNA polymerase, 1 μl of 1 mM nucleotide solution, 20 minutes at 37° C., gel mobility before and after UV)
Nc1ncnc2c1ncn2[C@@H]1O[C@H](COP(=O)(O)OP(=O)(O)OP(=O)(O)O)[C@@H](O)[C@H]1O [rATP, adenosine 5′-triphosphate]	extended by one or two bases				
Nc1ncnc2c1ncn2[C@@H]1O[C@H](COP(=O)(O)OP(=O)(O)OP(=O)(O)O)[C@@H](O)[C@H]1OCc1ccccc1[N+](=O)[O-] [2′-(2-Nitrobenzyl)-ATP]		Elongation of the transcript can resume upon removal of the protecting 2-Nitrobenzyl group by UV irradiation	acts as a bona fide terminator of transcription	we have not observed this activity	incorporation into the nascent RNA chain by T7 RNAP
Nc1ccn([C@@H]2O[C@H](COP(=O)(O)OP(=O)(O)OP(=O)(O)O)[C@@H](O)[C@H]2O)c(=O)n1 [rCTP, cytidine 5′-triphosphate]	extension is limited to one base only				
